# Data: PMC10987480, “Biological and mutational analyses of CXCR4–antagonist interactions and design of new antagonistic analogs” (Bioscience Reports, 2023)
# Positions of bridges follow the written chain, without caps; N, C: chain ends. Non-standard residues stand in square brackets, D forms with d. Residues, ends and D or L forms follow the SMILES beside them. Chains are numbered I, II in the order given.
# Tests used:
# CXCR4 R30A = target: T1, CXCR4 R30A (Homo sapiens, UniProt P61073, R30A); test: Competitive binding to CXCR4 mutant R30A (12G5, CHO cells); set-up: key to the marks not given beside the values; settings: TM1, class of reduction vs wild-type CXCR4, 12G5 competition, averages of at least three independent experiments
# T1 construct: expressed in transfected cells
# Method: (§1) Plasmid pcDNA3-CXCR4 and mutated pcDNA3-CXCR4 were extracted and transfected into CHO cells using Lipofectamine 2000 according to the manufacturer’s guidelines. The selective medium containing G418 at a concentration of 1.2 mg/ml was applied to isolate stably transfected cells. CHO cells expressing wild-type CXCR4 and mutant CXCR4 were obtained using fluorescence-activated cell sorting (FACS).
# (§2) All of the CXCR4 mutants were prepared using PCR technology. Briefly, pairs of asymmetrical primers containing the desired amino acid mutations (Supplementary Tables S1 and S2), each complementary to opposite strands of the pcDNA3–CXCR4, were designed for amplification by Q5® High-Fidelity DNA polymerase and the generation of mutated constructs. The methylated pcDNA3–CXCR4 templates were digested by DpnI. The mutated pcDNA3–CXCR4 was transformed into competent E. coli TOP10 for long-term storage and amplification.
# (§3) The procedure for the CXCR4 competitive binding experiments was published previously. Briefly, CXCR4 antibody 12G5 (250 ng/ml) was incubated with 5 × 10^5 cells and varying concentrations of unlabeled compounds in a final volume of 100 μl of assay buffer (PBS with 0.5% BSA and 0.05% NaN3) in 96-well plates for 40 min on ice, after being washed with assay buffer once. The cells were incubated with FITC-conjugated second antibody IgG for 30 min on ice, then washed with assay buffer three times. The fluorescence intensity was measured for excitation at 485 nm and emission at 535 nm using multimode plate reader (PerkinElmer). The IC50 values were calculated using graphpad Prism 7. Experiments were performed at least three times.
# CXCR4 Y45A = target: T2, CXCR4 Y45A (Homo sapiens, UniProt P61073, Y45A); test: Competitive binding to CXCR4 mutant Y45A (12G5, CHO cells); settings: TM1, class of reduction vs wild-type CXCR4, 12G5 competition, averages of at least three independent experiments
# T2 construct: expressed in transfected cells
# Method: as §1, §2, §3
# CXCR4 V112A = target: T3, CXCR4 V112A (Homo sapiens, UniProt P61073, V112A); test: Competitive binding to CXCR4 mutant V112A (12G5, CHO cells); settings: TM3, class of reduction vs wild-type CXCR4, 12G5 competition, averages of at least three independent experiments
# T3 construct: expressed in transfected cells
# Method: as §1, §2, §3
# CXCR4 H113A = target: T4, CXCR4 H113A (Homo sapiens, UniProt P61073, H113A); test: Competitive binding to CXCR4 mutant H113A (12G5, CHO cells); settings: TM3, class of reduction vs wild-type CXCR4, 12G5 competition, averages of at least three independent experiments
# T4 construct: expressed in transfected cells
# Method: as §1, §2, §3
# CXCR4 T117A = target: T5, CXCR4 T117A (Homo sapiens, UniProt P61073, T117A); test: Competitive binding to CXCR4 mutant T117A (12G5, CHO cells); settings: TM3, class of reduction vs wild-type CXCR4, 12G5 competition, averages of at least three independent experiments
# T5 construct: expressed in transfected cells
# Method: as §1, §2, §3
# CXCR4 W161A = target: T6, CXCR4 W161A (Homo sapiens, UniProt P61073, W161A); test: Competitive binding to CXCR4 mutant W161A (12G5, CHO cells); settings: TM4, class of reduction vs wild-type CXCR4, 12G5 competition, averages of at least three independent experiments
# T6 construct: expressed in transfected cells
# Method: as §1, §2, §3
# CXCR4 D193A = target: T7, CXCR4 D193A (Homo sapiens, UniProt P61073, D193A); test: Competitive binding to CXCR4 mutant D193A (12G5, CHO cells); settings: TM4, class of reduction vs wild-type CXCR4, 12G5 competition, averages of at least three independent experiments
# T7 construct: expressed in transfected cells
# Method: as §1, §2, §3
# CXCR4 H203A = target: T8, CXCR4 H203A (Homo sapiens, UniProt P61073, H203A); test: Competitive binding to CXCR4 mutant H203A (12G5, CHO cells); settings: TM5, class of reduction vs wild-type CXCR4, 12G5 competition, averages of at least three independent experiments
# T8 construct: expressed in transfected cells
# Method: as §1, §2, §3
# CXCR4 W252A = target: T9, CXCR4 W252A (Homo sapiens, UniProt P61073, W252A); test: Competitive binding to CXCR4 mutant W252A (12G5, CHO cells); settings: TM6, class of reduction vs wild-type CXCR4, 12G5 competition, averages of at least three independent experiments
# T9 construct: expressed in transfected cells
# Method: as §1, §2, §3
# CXCR4 D262E = target: T10, CXCR4 D262E (Homo sapiens, UniProt P61073, D262E); test: Competitive binding to CXCR4 mutant D262E (12G5, CHO cells); settings: TM6, class of reduction vs wild-type CXCR4, 12G5 competition, averages of at least three independent experiments
# T10 construct: expressed in transfected cells
# Method: as §1, §2, §3
# CXCR4 H281A = target: T11, CXCR4 H281A (Homo sapiens, UniProt P61073, H281A); test: Competitive binding to CXCR4 mutant H281A (12G5, CHO cells); settings: TM7, class of reduction vs wild-type CXCR4, 12G5 competition, averages of at least three independent experiments
# T11 construct: expressed in transfected cells
# Method: as §1, §2, §3
# CXCR4 I284A = target: T12, CXCR4 I284A (Homo sapiens, UniProt P61073, I284A); test: Competitive binding to CXCR4 mutant I284A (12G5, CHO cells); settings: TM7, class of reduction vs wild-type CXCR4, 12G5 competition, averages of at least three independent experiments
# T12 construct: expressed in transfected cells
# Method: as §1, §2, §3
# CXCR4 [1] = target: T13, CXCR4 (Homo sapiens, UniProt P61073); test: SDF-1α-induced cell migration assay in SupT1 cells (transwell); format: cell-based; set-up: host or cells: SupT1 cells; settings: 2 nM SDF-1α, 30 min pre-incubation, 3 h migration; for inhibition at 0.2 µM: SUP-T1, at 200 nM
# Method: (§4) Figure 2 The inhibitory effect of the antagonists on SDF-1α-induced cell chemotaxis and calcium mobilization in SupT1 cells The antagonists and concentrations used were labeled in each lane. (A) The inhibition of cell migration by the noted antagonists. SupT1 cells pre-treated with or without CXCR4 antagonists were seeded in the upper well and cell migrated by 2 nM SDF-1α. Migrated cells without SDF-1α were used as a negative (0%) and migrated cell induced by SDF-1α as a positive control (100%). […] SupT1 cells were treated with or without CXCR4 antagonists and activated by 50 nM SDF-1α. To directly compare the inhibitory effect of the antagonists on calcium mobilization, the vehicle background and baseline were removed using GraphPad and Origin. The data were averages of at least three independent experiments.
# SupT1 cells (2 × 10^6 cells per well in 75 μl) were collected and washed using assay buffer (RPMI 1640 supplemented with 0.5% BSA) and incubated with various concentrations of tested compounds for 30 min in the upper well of the transwell-96 well plates with 5.0 µm pore polycarbonate membrane insert (Corning, U.S.A.). Then, 200 μl assay buffer containing 2 nM SDF-1α was added to the lower well and cells were allowed to migrate for 3 h. Migrated cells were measured using celltiter-96 reagent.
# CXCR4 [2] = target: T13, CXCR4; test: SDF-1α-induced calcium mobilization assay in SupT1 cells (Fluo-4); format: cell-based; set-up: host or cells: SupT1 cells; settings: 50 nM SDF-1α
# Method: as §4
# SupT1 cells were collected and washed using HHBS buffer (Hanks’ Balanced Salt solution supplemented with 20 mM HEPES) and incubated with 1 mM probenecid (Energy Chemical, China) and 4 μM Fluo-4 (AAT bioquest, U.S.A.) for 37°C for 30 min with vortex every 5 min. After being washed with HHBS, cells were suspended in PBS at 2 × 10^6/ml and seeded 200 μl cells and various concentrations of compounds per well in 96-well plate. Following 50 nM SDF-1α was added to each well, the fluorescence intensity was measured (Ex/Em = 496/516 nm) using EnSpire® multimode plate reader (PerkinElmer, U.S.A.).
# T10 sequence (P61073 whole entry D262E): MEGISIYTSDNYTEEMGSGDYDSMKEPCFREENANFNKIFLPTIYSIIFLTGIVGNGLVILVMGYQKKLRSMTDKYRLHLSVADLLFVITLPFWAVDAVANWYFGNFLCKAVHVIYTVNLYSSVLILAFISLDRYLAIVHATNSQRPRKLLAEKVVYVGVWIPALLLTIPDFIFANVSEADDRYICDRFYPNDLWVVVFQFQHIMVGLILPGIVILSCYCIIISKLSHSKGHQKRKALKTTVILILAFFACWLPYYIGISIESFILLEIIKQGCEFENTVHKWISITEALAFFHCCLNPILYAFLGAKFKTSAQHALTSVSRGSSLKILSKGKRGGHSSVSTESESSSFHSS
# T11 sequence (P61073 whole entry H281A): as the sequence (P61073 whole entry D262E) above, with E262D, H281A counted along it
# T3 sequence (P61073 whole entry V112A): as the sequence (P61073 whole entry D262E) above, with V112A, E262D counted along it
# T1 sequence (P61073 whole entry R30A): as the sequence (P61073 whole entry D262E) above, with R30A, E262D counted along it
# T9 sequence (P61073 whole entry W252A): as the sequence (P61073 whole entry D262E) above, with W252A, E262D counted along it
# T13 sequence (P61073 whole entry): as the sequence (P61073 whole entry D262E) above, with E262D counted along it
# T6 sequence (P61073 whole entry W161A): as the sequence (P61073 whole entry D262E) above, with W161A, E262D counted along it
# T2 sequence (P61073 whole entry Y45A): as the sequence (P61073 whole entry D262E) above, with Y45A, E262D counted along it
# T4 sequence (P61073 whole entry H113A): as the sequence (P61073 whole entry D262E) above, with H113A, E262D counted along it
# T7 sequence (P61073 whole entry D193A): as the sequence (P61073 whole entry D262E) above, with D193A, E262D counted along it
# T12 sequence (P61073 whole entry I284A): as the sequence (P61073 whole entry D262E) above, with E262D, I284A counted along it
# T8 sequence (P61073 whole entry H203A): as the sequence (P61073 whole entry D262E) above, with H203A, E262D counted along it
# T5 sequence (P61073 whole entry T117A): as the sequence (P61073 whole entry D262E) above, with T117A, E262D counted along it
Compound,"Competitive receptor binding activity, CXCR4 R30A (CXCR4 R30A)","Competitive receptor binding activity, CXCR4 Y45A (CXCR4 Y45A)","Competitive receptor binding activity, CXCR4 V112A (CXCR4 V112A)","Competitive receptor binding activity, CXCR4 H113A (CXCR4 H113A)","Competitive receptor binding activity, CXCR4 T117A (CXCR4 T117A)","Competitive receptor binding activity, CXCR4 W161A (CXCR4 W161A)","Competitive receptor binding activity, CXCR4 D193A (CXCR4 D193A)","Competitive receptor binding activity, CXCR4 H203A (CXCR4 H203A)","Competitive receptor binding activity, CXCR4 W252A (CXCR4 W252A)","Competitive receptor binding activity, CXCR4 D262E (CXCR4 D262E)","Competitive receptor binding activity, CXCR4 H281A (CXCR4 H281A)","Competitive receptor binding activity, CXCR4 I284A (CXCR4 I284A)",inhibition at 0.2 µM (CXCR4 [1]) [%],Inhibition of calcium mobilization (in words) (CXCR4 [2]; at 5 nM),"inhibition at 0.005 µM (CXCR4 [2]; SUP-T1, at 5 nM) [%]","inhibition at 4 µM (CXCR4 [1]; SUP-T1, at 4 μM) [%]","inhibition at 1 µM (CXCR4 [2]; SUP-T1, at 1 μM) [%]"
c1cc(CN2CCCNCCNCCCNCC2)ccc1CN1CCCNCCNCCCNCC1 [AMD3100],+++,++ (10–29% reduction compared with wild-type CXCR4),+++,++ (10–29% reduction compared with wild-type CXCR4),+++,+++,++ (10–29% reduction compared with wild-type CXCR4),+++,+++,+ (30–60% reduction compared with wild-type CXCR4),+++,+++,61,very weak inhibition,,,
NCCCCN(Cc1nc2ccccc2[nH]1)[C@H]1CCCc2cccnc21 [AMD11070],+++,++ (10–29% reduction compared with wild-type CXCR4),+++,+ (30–60% reduction compared with wild-type CXCR4),+++,++ (10–29% reduction compared with wild-type CXCR4),+++,+++,+++,+++,++ (10–29% reduction compared with wild-type CXCR4),+++,80,,71,,
CC(C)C[C@@H](N)C(=O)NCC(=O)N[C@H](C)C(=O)N[C@H](CO)C(=O)N[C@H](Cc1c[nH]c2ccccc12)C(=O)N[C@H](Cc1c[nH]cn1)C(=O)N[C@H](CCCNC(=N)N)C(=O)N1CCC[C@@H]1C(=O)N[C@H](CC(=O)O)C(=O)N[C@H](CCCCN)C(=O)NCCCC[C@@H](NC(=O)[C@H]1CCCN1C(=O)[C@@H](CC(C)C)NC(=O)[C@H]1CCCN1C(=O)[C@@H](CCCNC(=N)N)NC(=O)[C@@H](CCCCN)NC(=O)[C@@H](CCC(N)=O)NC(=O)[C@@H](Cc1ccc(O)cc1)NC(=O)CNC(=O)[C@@H](CC(C)C)NC(=O)[C@@H](CS)NC(=O)[C@@H](CS)NC(=O)[C@@H](CCCCN)NC(=O)[C@@H](CC(=O)O)NC(=O)[C@H]1CCCN1C(=O)[C@@H](CCCNC(=N)N)NC(=O)[C@@H](Cc1c[nH]cn1)NC(=O)[C@@H](Cc1c[nH]c2ccccc12)NC(=O)[C@@H](CO)NC(=O)[C@@H](C)NC(=O)CNC(=O)[C@H](N)CC(C)C)C(=O)O [HC4319] (I: H-[dL]G[dA][dS][dW][dH][dR][dP][dD][dK][dC][dC][dL]G[dY][dQ][dK][dR][dP][dL][dP][dK]-OH / II: H-[dL]G[dA][dS][dW][dH][dR][dP][dD][dK]; amide I:22-II:C; N-terminus and C-terminus assumed),+++,+ (30–60% reduction compared with wild-type CXCR4),+++,++ (10–29% reduction compared with wild-type CXCR4),+++,+++,++ (10–29% reduction compared with wild-type CXCR4),+++,+++,++ (10–29% reduction compared with wild-type CXCR4),++ (10–29% reduction compared with wild-type CXCR4),+++,,,,56,77
